Data reported in PubChem BioAssay (NCI).
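1) Cells in 96-well plates. 2) Compound, 48 h, 5 concentrations. 3) Linear interpolation between surrounding doses. 4) Unreached endpoint = highest concentration. At the TGI there is no net growth.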

Assays:
Experiment in all cases: NCI tumour cell line growth inhibition, 48 h
786-0 renal = test system: 786-0 renal
A498 renal = test system: A498 renal
A549 NSCLC = test system: A549 NSCLC
ACHN renal = test system: ACHN renal
BT-549 breast = test system: BT-549 breast
CAKI-1 renal = test system: CAKI-1 renal
COLO 205 colon = test system: COLO 205 colon
DU-145 prostate = test system: DU-145 prostate
EKVX NSCLC = test system: EKVX NSCLC
HCC-2998 colon = test system: HCC-2998 colon
HCT-116 colon = test system: HCT-116 colon
HCT-15 colon = test system: HCT-15 colon
HOP-62 NSCLC = test system: HOP-62 NSCLC
HOP-92 NSCLC = test system: HOP-92 NSCLC
HS 578T breast = test system: HS 578T breast
HT29 colon = test system: HT29 colon
K-562 leukemia = test system: K-562 leukemia
KM12 colon = test system: KM12 colon
LOX IMVI melanoma = test system: LOX IMVI melanoma
M14 melanoma = test system: M14 melanoma
MALME-3M melanoma = test system: MALME-3M melanoma
MDA-MB-231 breast = test system: MDA-MB-231 breast
MDA-MB-435 = test system: MDA-MB-435
MDA-N = test system: MDA-N
NCI-H226 lung = test system: NCI-H226 lung
NCI-H23 lung = test system: NCI-H23 lung
NCI-H460 lung = test system: NCI-H460 lung
NCI-H522 lung = test system: NCI-H522 lung
NCI/ADR-RES ovarian = test system: NCI/ADR-RES ovarian
OVCAR-3 ovarian = test system: OVCAR-3 ovarian
OVCAR-4 ovarian = test system: OVCAR-4 ovarian
OVCAR-5 ovarian = test system: OVCAR-5 ovarian
OVCAR-8 ovarian = test system: OVCAR-8 ovarian
RPMI-8226 leukemia = test system: RPMI-8226 leukemia
RXF 393 renal = test system: RXF 393 renal
SF-268 CNS = test system: SF-268 CNS
SF-295 CNS = test system: SF-295 CNS
SF-539 CNS = test system: SF-539 CNS
SK-MEL-2 melanoma = test system: SK-MEL-2 melanoma
SK-MEL-28 melanoma = test system: SK-MEL-28 melanoma
SK-MEL-5 melanoma = test system: SK-MEL-5 melanoma
SK-OV-3 ovarian = test system: SK-OV-3 ovarian
SN12C renal = test system: SN12C renal
SNB-19 CNS = test system: SNB-19 CNS
SR leukemia = test system: SR leukemia
SW-620 colon = test system: SW-620 colon
T-47D breast = test system: T-47D breast
TK-10 renal = test system: TK-10 renal
U251 CNS = test system: U251 CNS
UACC-257 melanoma = test system: UACC-257 melanoma
UACC-62 melanoma = test system: UACC-62 melanoma
UO-31 renal = test system: UO-31 renal
CCRF-CEM leukemia = test system: CCRF-CEM leukemia
HL-60(TB) leukemia = test system: HL-60(TB) leukemia
IGROV1 ovarian = test system: IGROV1 ovarian
MCF7 breast = test system: MCF7 breast
MOLT-4 leukemia = test system: MOLT-4 leukemia
PC-3 prostate = test system: PC-3 prostate
SNB-75 CNS = test system: SNB-75 CNS

With CCN(CC)C(=S)SS(=O)(=O)c1ccc(Cl)cc1 the TGI (786-0 renal) was greater than 100 µM, the TGI (A498 renal) was greater than 100 µM and the TGI (A549 NSCLC) was greater than 100 µM. The TGI (ACHN renal) was greater than 100 µM, the TGI (BT-549 breast) was greater than 100 µM and the TGI (CAKI-1 renal) was 43.5 µM. For the same molecule, the TGI (COLO 205 colon) was greater than 100 µM, the TGI (DU-145 prostate) was 82 µM and the TGI (EKVX NSCLC) was greater than 100 µM. It also gave a TGI (HCC-2998 colon) greater than 100 µM, a TGI (HCT-116 colon) greater than 100 µM and a TGI (HCT-15 colon) greater than 100 µM. It also gave a TGI (HOP-62 NSCLC) of 65.7 µM, a TGI (HOP-92 NSCLC) of 50.4 µM and a TGI (HS 578T breast) greater than 100 µM. The TGI (HT29 colon) was 32.1 µM, the TGI (K-562 leukemia) was 63.3 µM and the TGI (KM12 colon) was 24.4 µM. The TGI (LOX IMVI melanoma) was 29.2 µM, the TGI (M14 melanoma) was 31 µM and the TGI (MALME-3M melanoma) was 27.5 µM. It also gave a TGI (MDA-MB-231 breast) greater than 100 µM, a TGI (MDA-MB-435) of 48.5 µM and a TGI (MDA-N) greater than 100 µM. It also gave a TGI (NCI-H226 lung) greater than 100 µM, a TGI (NCI-H23 lung) greater than 100 µM and a TGI (NCI-H460 lung) greater than 100 µM. It also gave a TGI (NCI-H522 lung) of 0.0995 µM, a TGI (NCI/ADR-RES ovarian) greater than 100 µM and a TGI (OVCAR-3 ovarian) greater than 100 µM. It also gave a TGI (OVCAR-4 ovarian) greater than 100 µM, a TGI (OVCAR-5 ovarian) greater than 100 µM and a TGI (OVCAR-8 ovarian) of 34 µM. For the same molecule, the TGI (RPMI-8226 leukemia) was 43.2 µM, the TGI (RXF 393 renal) was 39.2 µM and the TGI (SF-268 CNS) was greater than 100 µM. For the same molecule, the TGI (SF-295 CNS) was greater than 100 µM, the TGI (SF-539 CNS) was 43.5 µM and the TGI (SK-MEL-2 melanoma) was greater than 100 µM. The TGI (SK-MEL-28 melanoma) was 34.4 µM, the TGI (SK-MEL-5 melanoma) was 30.9 µM and the TGI (SK-OV-3 ovarian) was greater than 100 µM. The TGI (SN12C renal) was 48.2 µM, the TGI (SNB-19 CNS) was greater than 100 µM and the TGI (SR leukemia) was 21.1 µM. It also gave a TGI (SW-620 colon) of 37 µM, a TGI (T-47D breast) greater than 100 µM and a TGI (TK-10 renal) greater than 100 µM. It also gave a TGI (U251 CNS) of 30.4 µM, a TGI (UACC-257 melanoma) of 58.8 µM and a TGI (UACC-62 melanoma) greater than 100 µM. It also gave a TGI (UO-31 renal) of 35.7 µM.
Work on CC1=CCC2C3(C)CCC2(C(C)C)C1C3 (stereo not given) (tested in a mixture with another compound) yielded a TGI (786-0 renal) of 47.3 µM, a TGI (A498 renal) of 89.4 µM and a TGI (A549 NSCLC) of 39 µM. The TGI (ACHN renal) was 36.9 µM, the TGI (BT-549 breast) was 45.8 µM and the TGI (CAKI-1 renal) was 40.7 µM. The TGI (CCRF-CEM leukemia) was 56.9 µM, the TGI (COLO 205 colon) was 65 µM and the TGI (DU-145 prostate) was 68 µM. The TGI (EKVX NSCLC) was 50.9 µM, the TGI (HCC-2998 colon) was 49.5 µM and the TGI (HCT-116 colon) was greater than 100 µM. It also gave a TGI (HCT-15 colon) of 33.3 µM, a TGI (HL-60(TB) leukemia) of 57.3 µM and a TGI (HOP-62 NSCLC) of 57.5 µM. For the same molecule, the TGI (HOP-92 NSCLC) was 58.3 µM, the TGI (HS 578T breast) was 38.2 µM and the TGI (HT29 colon) was 32.4 µM. The TGI (IGROV1 ovarian) was 35.1 µM, the TGI (K-562 leukemia) was 99 µM and the TGI (KM12 colon) was 36.8 µM. For the same molecule, the TGI (LOX IMVI melanoma) was 87.8 µM, the TGI (M14 melanoma) was 45.7 µM and the TGI (MALME-3M melanoma) was greater than 100 µM. For the same molecule, the TGI (MCF7 breast) was 34.3 µM, the TGI (MDA-MB-231 breast) was 55.6 µM and the TGI (MDA-MB-435) was 88.2 µM. It also gave a TGI (MDA-N) greater than 100 µM, a TGI (MOLT-4 leukemia) of 75.3 µM and a TGI (NCI-H23 lung) greater than 100 µM. The TGI (NCI-H460 lung) was 32.9 µM, the TGI (NCI-H522 lung) was 39.3 µM and the TGI (NCI/ADR-RES ovarian) was 37.7 µM. The TGI (OVCAR-3 ovarian) was 30.2 µM, the TGI (OVCAR-4 ovarian) was greater than 100 µM and the TGI (OVCAR-5 ovarian) was 37.6 µM. For the same molecule, the TGI (OVCAR-8 ovarian) was 33.2 µM, the TGI (PC-3 prostate) was greater than 100 µM and the TGI (RPMI-8226 leukemia) was 56.7 µM. For the same molecule, the TGI (RXF 393 renal) was 33.2 µM, the TGI (SF-268 CNS) was 36.1 µM and the TGI (SF-295 CNS) was 40.3 µM. For the same molecule, the TGI (SF-539 CNS) was 87.4 µM, the TGI (SK-MEL-2 melanoma) was 32.2 µM and the TGI (SK-MEL-28 melanoma) was 88.6 µM. For the same molecule, the TGI (SK-OV-3 ovarian) was greater than 100 µM, the TGI (SN12C renal) was 36.2 µM and the TGI (SNB-19 CNS) was 33.8 µM. For the same molecule, the TGI (SNB-75 CNS) was 77.5 µM, the TGI (SW-620 colon) was 53.7 µM and the TGI (T-47D breast) was greater than 100 µM. It also gave a TGI (TK-10 renal) of 78.7 µM, a TGI (U251 CNS) of 50.8 µM and a TGI (UACC-257 melanoma) of 99.7 µM. The TGI (UACC-62 melanoma) was greater than 100 µM and the TGI (UO-31 renal) was 82.3 µM.
In the case of Cc1cccc(CC(Cc2c(C)cccc2C(=O)O)C(=O)O)c1 (stereo not given), the TGI (786-0 renal) was greater than 100 µM, the TGI (A498 renal) was greater than 100 µM and the TGI (A549 NSCLC) was greater than 100 µM. The TGI (ACHN renal) was greater than 100 µM, the TGI (BT-549 breast) was greater than 100 µM and the TGI (CAKI-1 renal) was greater than 100 µM. For the same molecule, the TGI (CCRF-CEM leukemia) was greater than 100 µM, the TGI (COLO 205 colon) was greater than 100 µM and the TGI (DU-145 prostate) was greater than 100 µM. The TGI (EKVX NSCLC) was greater than 100 µM, the TGI (HCC-2998 colon) was greater than 100 µM and the TGI (HCT-116 colon) was greater than 100 µM. For the same molecule, the TGI (HCT-15 colon) was greater than 100 µM, the TGI (HL-60(TB) leukemia) was greater than 100 µM and the TGI (HOP-62 NSCLC) was greater than 100 µM. For the same molecule, the TGI (HS 578T breast) was greater than 100 µM, the TGI (HT29 colon) was greater than 100 µM and the TGI (IGROV1 ovarian) was greater than 100 µM. It also gave a TGI (K-562 leukemia) greater than 100 µM, a TGI (KM12 colon) greater than 100 µM and a TGI (LOX IMVI melanoma) greater than 100 µM. For the same molecule, the TGI (M14 melanoma) was greater than 100 µM, the TGI (MALME-3M melanoma) was greater than 100 µM and the TGI (MCF7 breast) was greater than 100 µM. For the same molecule, the TGI (MDA-MB-231 breast) was greater than 100 µM, the TGI (MDA-MB-435) was greater than 100 µM and the TGI (MDA-N) was greater than 100 µM. It also gave a TGI (MOLT-4 leukemia) greater than 100 µM, a TGI (NCI-H226 lung) greater than 100 µM and a TGI (NCI-H23 lung) greater than 100 µM. For the same molecule, the TGI (NCI-H460 lung) was greater than 100 µM, the TGI (NCI-H522 lung) was greater than 100 µM and the TGI (NCI/ADR-RES ovarian) was greater than 100 µM. For the same molecule, the TGI (OVCAR-3 ovarian) was greater than 100 µM, the TGI (OVCAR-4 ovarian) was greater than 100 µM and the TGI (OVCAR-5 ovarian) was greater than 100 µM. For the same molecule, the TGI (OVCAR-8 ovarian) was greater than 100 µM, the TGI (PC-3 prostate) was greater than 100 µM and the TGI (RPMI-8226 leukemia) was greater than 100 µM. It also gave a TGI (RXF 393 renal) greater than 100 µM, a TGI (SF-268 CNS) greater than 100 µM and a TGI (SF-295 CNS) greater than 100 µM. For the same molecule, the TGI (SF-539 CNS) was greater than 100 µM, the TGI (SK-MEL-2 melanoma) was greater than 100 µM and the TGI (SK-MEL-28 melanoma) was greater than 100 µM. The TGI (SK-MEL-5 melanoma) was 37.2 µM, the TGI (SK-OV-3 ovarian) was greater than 100 µM and the TGI (SN12C renal) was greater than 100 µM. The TGI (SNB-19 CNS) was greater than 100 µM, the TGI (SNB-75 CNS) was greater than 100 µM and the TGI (SR leukemia) was greater than 100 µM. The TGI (SW-620 colon) was greater than 100 µM, the TGI (TK-10 renal) was greater than 100 µM and the TGI (U251 CNS) was greater than 100 µM. For the same molecule, the TGI (UACC-257 melanoma) was greater than 100 µM, the TGI (UACC-62 melanoma) was 10.6 µM and the TGI (UO-31 renal) was greater than 100 µM.
